The target in data set [1] is T1, hM4DREADD in Tac2+ neurons (Homo sapiens, UniProt P08173, A203G/Y113C).
T1 construct: host or cells: Tac2+ neurons of Tac2-Cre mice (dBNSTa, DMH or CeA), transduced in vivo with AAV2-EF1a-DIO-hM4D-mCherry
T1 sequence (P08173 1-479 Y113C/A203G): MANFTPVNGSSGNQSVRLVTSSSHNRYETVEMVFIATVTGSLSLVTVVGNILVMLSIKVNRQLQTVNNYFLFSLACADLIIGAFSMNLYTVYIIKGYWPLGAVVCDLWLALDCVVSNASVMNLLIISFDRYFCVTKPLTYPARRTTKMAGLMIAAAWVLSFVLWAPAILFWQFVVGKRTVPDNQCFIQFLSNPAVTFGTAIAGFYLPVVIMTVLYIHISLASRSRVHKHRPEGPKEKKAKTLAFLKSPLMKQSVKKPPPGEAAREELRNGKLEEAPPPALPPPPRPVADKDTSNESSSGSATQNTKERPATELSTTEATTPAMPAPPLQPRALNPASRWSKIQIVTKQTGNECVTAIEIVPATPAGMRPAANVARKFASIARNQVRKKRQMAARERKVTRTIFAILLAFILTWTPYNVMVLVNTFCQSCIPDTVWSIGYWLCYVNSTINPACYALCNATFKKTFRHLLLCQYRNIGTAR
Description: Tone fear test, CNO silencing of Tac2+ neurons (hM4DREADD). The data set is classed as in vivo, mouse. The method, then:
The protocol for tone trace fear conditioning was performed as previously described (Cushman et al., 2014; incorporated by reference in its entirety) using fear conditioning boxes previously described in detail (Haubensak et al., 2010; Kunwar et al., 2015; incorporated by reference in their entirety). Briefly, mice were transported in squads of four on a white cart to a novel behavioral testing room containing 4 sound-attenuating fear-conditioning chambers (Med Associates). This “training context” was comprised of flat grid flooring (wired to a shock generator and scrambler for footshock delivery, Med Associates), houselights, and the presence of an internal fan for background noise. Chambers were sprayed with 70% Simple Green solution on the underlying chamber pan to generate a unique contextual scent and chambers were cleaned with 70% EtOH between squads. Trace fear conditioning consisted of a 3 minute baseline period followed by 3 tone-shock trials consisting of a 20 second tone conditional stimulus (CS; 75 dB, 2800 Hz), a 20 second trace interval and a 2 second footshock unconditional stimulus (US; 0.7 mA). The inter-trial interval (ITI) between trials was 60 seconds. Mice remained in the chambers an additional 60 seconds before being transported back to the vivarium. The following day, mice were transported in fresh cardboard boxes to a novel behavioral testing room consisting of 4 distinct fear-conditioning boxes to test for tone fear. […] Freezing behavior during the baseline period as well as during each tone presentation (“during”) and trace interval (“post”) were assessed as previously described (Zelikowsky et al., 2014; incorporated by reference in its entirety) using automated near-infrared video tracking equipment and computer software (VideoFreeze, Med Associates). Shock reactivity (motion, arbitrary units) was measured during the 2 second shock US as well as the 3 seconds immediately following. […]

The conditions of data set [2]: Spooren et al., 2005; cited from earlier work.

The structures appear in SMILES notation. Entries after “also recorded” stand apart in the source; their conditions may differ.

As for `C[N+]1([O-])CCN(C2=Nc3cc(Cl)ccc3Nc3ccccc32)CC1` [CNO, clozapine-N-oxide], the “acute (during) freezing to conditioned tone” value in data set [1] (SIS Tac2-Cre mice, hM4DREADD in CeA, CNO 5 mg/kg i.p.) was “blocked; also recorded: suppressed”. Besides, in data set [1] (SIS Tac2-Cre mice, hM4DREADD in dBNSTa, CNO 5 mg/kg i.p.), the “persistent (post) freezing to conditioned tone” value is reported as “blocked; also recorded: selectively attenuated”. Besides, the “tone fear test freezing in mCherry control virus mice” value in data set [1] (SIS mice, AAV2-EF1a-DIO-mCherry control virus in dBNSTa (no hM4DREADD), CNO vs vehicle) is reported as “had no effect; also recorded: did not observe any effects; also recorded: no significant effects”.
Consider `CC(=O)N(C)C1(c2ccccc2)CCN(CCC[C@]2(c3ccc(Cl)c(Cl)c3)CCCN(C(=O)c3ccccc3)C2)CC1` [osanetant, N-(1-{3-[(3R)-1-benzoyl-3-(3,4-dichlorophenyl)piperidin-3-yl]propyl}-4-phenylpiperidin-4-yl)-N-methylacetamide], for which the blood-brain barrier passage result in data set [2] was “crosses the blood-brain barrier”.
